From US11345825B2, “Aqueous pigment dispersion” (KAO CORPORATION, priority 2016, dated 2022) come the findings set out here.

The data set is described as follows: Measurement of pKa of ethanolamine (potentiometric titration). As to conditions: aqueous solution of the ethanolamine.

For `COCCOCCN(CCOCCOC)CCOCCOC` [Tris[2-(2-methoxyethoxy)ethyl]amine, tris[2-(2-methoxyethoxy)ethyl]amine], the pKa stood at 7.48.
